US20030176401A1, “Sodium salt of an azo derivative of 5-aminosalicylic acid” (priority 2000, published 2003)

Key:
[1] = Azoreduction after oral administration: distribution of product and UR-12715 in faeces, study in rats; format: in vivo, Sprague-Dawley rats; conditions: for relative percentage of Product (administered compound) found in faeces: female rats, 50 mg/kg oral, suspension in 0.2% CMC, mean of 3; for azoreduction after oral administration: rats
Procedure: (§1) The level of azoreduction has been studied by determining the distribution of UR-12746 and UR-12715 in faeces after the oral administration of UR-12746 and its sodium salt in rats and monkeys.
For the study in rats, 6 female Sprague-Dawley rats weighing between 169 and 185 g were used. UR-12746 and the sodium salt of UR-12746 (polymorph I) were orally administered to three rats each as a suspension in 0.2% carboxymethylcelulose (CMC), at a dose of 50 mg/kg (100 mg of test compound/10 mL of 0.2% CMC).
The rats were placed in metabolic cages, so that urine and faeces could be separately collected, and faeces were collected during the periods 0-24 h and 24-48 h. The faeces collected in the same period were weighted and crumbled. Water was added (2 mL of water/g of faeces) and the paste obtained was stirred to homogeneity. The total weight of the homogenate was then determined.
An aliquot of this homogenate (about 2 g) was mixed with 4 mL of MeOH, stirred in a Vortex and centrifuged for 10 minutes at 4500 rpm (3000 g). The supernatant was filtered through a 0.45 μm filter, and the concentrations of the administered product and metabolite present in the sample were determined by a HPLC chromatographic method with gradient elution and ultraviolet detection, under the conditions detailed below:
The level of azoreduction was determined from the amounts of product and UR-12715 recovered in faeces. The relative percentage of the amounts corresponding to the product (UR-12746 or sodium salt of UR-12746) and to the metabolite (UR-12715) found in faeces after oral administration are shown in Table 3. Results are given as the mean values.

[2] = Azoreduction after oral administration: distribution of product and UR-12715 in faeces, study in monkeys; format: in vivo, Cynomolgus monkeys; conditions: for relative percentage of Product (administered compound) found in faeces: 100 mg/kg p.o. (UR-12746 suspension in 0.2% CMC; sodium salt capsules)
Procedure: as §1
6 Cynomolgus monkeys were used for this study. Each test product was administered to three monkeys, respectively. UR-12746 was administered as a suspension in 0.2% CMC, at a dose of 100 mg/kg p.o. (1000 mg UR-12746/10 mL of 0.2% CMC), whereas the sodium salt of UR-12746 (polymorph I) was administered as individualized capsules for each animal at a dose of 100 mg/kg p.o.
The monkeys were placed in metabolic cages, so that urine and faeces could be separately collected, and faeces corresponding to the periods 0-24 h, 24-48 h and 48-72 h were collected.
The treatment of the faeces and the determination of the amount of administered product and metabolite present in the samples were carried out following the same procedure described above for the study in rats.
As in the rat study, the azoreduction level was determined from the amounts of product and UR-12715 recovered in faeces.

Row | relative percentage of Product (administered compound) found in faeces ([1]; faeces 0-24 h) | relative percentage of Product (administered compound) found in faeces ([1]; faeces 0-48 h) | relative percentage of Product (administered compound) found in faeces ([1]; faeces 24-48 h) | azoreduction after oral administration [1] | relative percentage of Product (administered compound) found in faeces ([2]; faeces 0-24 h) | relative percentage of Product (administered compound) found in faeces ([2]; faeces 0-72 h) | relative percentage of Product (administered compound) found in faeces ([2]; faeces 24-48 h) | relative percentage of Product (administered compound) found in faeces ([2]; faeces 48-72 h) | azoreduction (metabolization in the colon) after oral administration [2] | SMILES
1 | 78.8% | 76.1% | 52.5% | 24% | >99% | >99% | >99% | >99% | no azoreduction | Cc1nc2cnccc2n1CC1CCN(C(=O)/C=C(/c2ccccc2)c2ccc(N=Nc3ccc(O)c(C(=O)O)c3)cc2)CC1 [UR-12746, (Z)-2-hydroxy-5-[[4-[3-[4-[(2-methyl-1H-imidazo[4,5-c]pyridin-1-yl)methyl]-1-piperidinyl]-3-oxo-1-phenyl-1-propenyl]phenyl]azo]benzoic acid]
2 | 21.1% | 20.8% | 12.1% | around 79% | 12.6% | 9.7% | 6.5% | 5.0% | around 90% | Cc1nc2cnccc2n1CC1CCN(C(=O)/C=C(/c2ccccc2)c2ccc(N=Nc3ccc(O)c(C(=O)[O-])c3)cc2)CC1.[Na+] [Sodium salt of UR-12746, sodium salt of (Z)-2-hydroxy-5-[[4-[3-[4-[(2-methyl-1H-imidazo[4,5-c]pyridin-1-yl)methyl]-1-piperidinyl]-3-oxo-1-phenyl-1-propenyl]phenyl]azo]benzoic acid]
